Test results from article PMC11451635, “A Broad Spectrum Lasso Peptide Antibiotic Targeting the Bacterial Ribosome” (Research Square, 2024).
“Also recorded” adds a separate entry of the source.

How the values were obtained:
E. coli ribosome = experiment: Translocation inhibition assay; type: biochemical, Escherichia coli; details: 62.5 μM LAR or 250 μM negamycin, EF-G/GTP, primer extension
[1] = tested on: T. thermophilus 70S ribosome; experiment: X-ray structure of ribosome complex; type: binding, Thermus thermophilus; details: 70S ribosome with mRNA and tRNAs, 250 μM antibiotic
bacteria = experiment: Antibiotic activity compared with LAR; type: cell-based; details: Supplementary Fig. 11
Protocol: MICs were determined using broth microdilution method in cation-adjusted Mueller-Hinton Broth (MHBII, BD Difco) following standard procedures unless stated otherwise. Mycobacteria susceptibility was tested in Middlebrook 7H9 medium supplemented with 10% OADC Enrichment (oleic acid, bovine albumin, dextrose, and catalase) (BD Difco). The compounds (2 to 4 μl) were mixed with diluted cultures (5–7 × 10^5 cfu/mL) in MHB (196 to 198 μL) in 96-well round-bottom plates, and 2-fold serial dilutions were made. Plates were incubated at 37°C for 18–22 h, and OD600 readings were taken on Synergy Microplate Reader (Biotek). MIC was determined to be the lowest concentration of antibiotics with no visible growth. For Mycobacterial cultures, the plates were read after two to three days. Susceptibility was also assessed in MOPS minimal medium with 0.4% glucose (M2106 Teknova) and RPMI-1640 medium. Serum effects were tested in MHB with 10% or 50% fetal bovine serum (Invitrogen) or human serum (Heat Inactivated, from human male AB plasma; Sigma-Aldrich). For anaerobic conditions, E. coli was incubated in BD GasPak™ EZ pouch systems. To adjust the pH of the media, 1M NaOH or 1N HCl was used.

ClpP protease = details: cited from earlier work
mycobacteria = details: cited from earlier work

With `CN(CC(=O)O)NC(=O)C[C@H](N)C[C@@H](O)CN` [negamycin, reference compound] the “Inhibition of ribosome translocation” value (E. coli ribosome) was “interferes with the movement of mRNA/tRNA complex through the ribosome”.
For lariocidin B [LAR-B], the “Ribosome binding (X-ray structure)” value [1] was “Both LAR variants form very similar complexes with the ribosome” and the “Antibiotic activity relative to LAR” value (bacteria) was “antibiotic activity comparable to that of the main LAR product; also recorded: closely matched that of LAR”.
In the case of lassomycin, the Target / activity (ClpP protease) is given as “targets microbial ClpP protease” and the Antimycobacterial activity (mycobacteria) is given as “exhibits antimycobacterial activity”.
For triculamin, the Antimycobacterial activity (mycobacteria) is listed as “antimycobacterial”.
